Source: patent publication EP4656640A1, “IRAK4 DEGRADER AND USE THEREOF” (Shanghai Qilu Pharmaceutical Research and Development …, priority 2023, dated 2024)
Where two headings read alike, the source gives them in different places.

Experiments:
[1] = Mouse pharmacokinetics, oral (Experiment 1); format: in vivo, C57BL/6 mice; conditions: mice, PO 100 mg/kg, fasted overnight, plasma
Protocol: C57BL/6 mice were used as test animals to study the pharmacokinetic behavior of the compounds of the present disclosure in mouse plasma after oral administration at a dose of 100 mg/kg.
C57BL/6, male, transferred from the animal repository of the laboratory institution (999M-018).
Three male C57BL/6 mice were fasted overnight (10-14 hours) with free access to water one day before administration. The mice were fed 4 hours after administration. The dose for PO administration was 100 mg/kg, with an administration volume of 20 mL/kg.
After administration, blood samples (0.03 mL) were collected from the mice via venipuncture at 0.083, 0.25, 0.5, 1, 2, 4, 8, and 24 hours. The samples were placed in EDTA-K2 tubes and centrifuged at 6800 rpm for 5 minutes at 2-8°C. The plasma was separated and stored at -80°C.
• 1) 10 µL of plasma sample was added to 200 µL of methanol for precipitation. After mixing, the mixture was centrifuged at 18000 g for 10 minutes. • 2) The processed supernatant solution was taken for LC/MS/MS analysis to determine the concentration of the test compound.
• Liquid phase conditions: Shimadzu LC-30AD pump • Mass spectrometry conditions: AB Sciex API 5500 mass spectrometer • Chromatographic column: Phenomenex Kinetex 2.6 µm C18 50 3.0 mm • Mobile phase: Solution A was 0.1% formic acid in water, and solution B was 0.1% formic acid in acetonitrile • Flow rate: 0.6 mL/min • Elution time: Gradient elution for 0-1.6 minutes.
The main pharmacokinetic parameters were calculated using WinNonlin 8.0.

[2] = mice, 8 hours after last administration
Protocol: Experimental animals: SPF-grade male C57BL/6J mice aged 6-8 weeks.
Preparation of compound: 10% DMSO + 50% PEG400 + 40% sterile water for injection. The compound was dissolved in DMSO, followed by the addition of PEG400 and sterile water for injection, and the solution was adjusted to clarity with 6N hydrochloric acid.
Compound administration and IL-33 inflammatory induction: The mice were randomly grouped according to body weight and orally administered with the compound at final doses of 15 mg/kg, 50 mg/kg, and 150 mg/kg, twice daily. At 4 hours after the last administration of the compound, the mice were intraperitoneally injected with 1 µg/100 µL PBS of IL-33 for inflammatory induction.
Termination, sample collection, and data: Plasma, peritoneal lavage fluid, and spleen were collected for subsequent sample index detection.
The experiment was terminated 8 hours after the last administration. The mice were anesthetized, and cardiac blood was collected. The blood samples were anticoagulated with EDTA-K2, centrifuged at 3500 rpm for 15 minutes, and the upper plasma was collected.

Question: Which results are given for `Cn1c(=O)n(C2CCC(=O)NC2=O)c2cccc(C#CCCN3CCC4(CC3)CC(n3cc(NC(=O)c5cnn6ccc(N7C[C@H]8C[C@@H]7CO8)nc56)c(C(F)F)n3)C4)c21` (stereo partly drawn) [Example 22]?
Answer: AUC(0-inf) [1]: 18400 ng·h/mL; AUC(0-t) at 24 h [1]: 17600 ng·h/mL; Cmax [1]: 1400 ng/mL; MRT inf [1]: 8 h; Tmax [1]: 1.7 h; half-life [1]: 324 min; C8hr Plasma ([2]; PO 15 mpk twice daily): 54 ng/mL; C8hr Spleen ([2]; PO 15 mpk twice daily): 369 ng/mL; C8hr Plasma ([2]; PO 50 mpk twice daily): 517 ng/mL; C8hr Spleen ([2]; PO 50 mpk twice daily): 6135 ng/mL; C8hr Plasma ([2]; PO 150 mpk twice daily): 1392 ng/mL; C8hr Spleen ([2]; PO 150 mpk twice daily): 16257 ng/mL
